Reference: US12077503B2, “Substituted cyclic amides and their use as herbicides” (FMC CORPORATION, priority 2015, dated 2024)

Key:
Format in all cases: in vivo
[1] = test system: ducksalad (Heteranthera limosa); assay: Test B flooded paddy test; details: Flood, 250 g ai/ha; 0 to 100 scale where 0 is no effect and 100 is complete control; 13 to 15 d
Method in brief: (§1)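 Evaluation by eye, against controls, occurred 13–15 d post-treatment in a greenhouse, using a 0 (no effect) to 100 (complete control) scale. Application was into the paddy water, 3 cm deep over the soil, on 2-leaf plants.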

rice (Oryra sativa) = assay: Test B flooded paddy test; details: Flood, 250 g ai/ha; 0 to 100 scale where 0 is no effect and 100 is complete control; 13 to 15 d
Method in brief: as §1

[2] = test system: sedge, umbrella (small-flower umbrella sedge, Cyperus difformis); assay: Test B flooded paddy test; details: Flood, 250 g ai/ha; 0 to 100 scale where 0 is no effect and 100 is complete control; 13 to 15 d
Method in brief: as §1

[3] = test system: barnyardgrass (Echinochloa crus-galli); assay: Test B flooded paddy test; details: Flood, 250 g ai/ha; 0 to 100 scale where 0 is no effect and 100 is complete control; 13 to 15 d
Method in brief: as §1

corn (Zea mays) = assay: Test A postemergence; details: postemergence
Method in brief: (§2)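 Seeds sprayed preemergence with a directed soil spray, or plants at 2 to 10 cm height and one- to two-leaf stage sprayed postemergence, with test chemicals in a non-phytotoxic solvent mixture containing surfactant, in loam soil–sand blend. Injury rated visually against untreated controls after about 10 d in greenhouse, 0 (no effect) to 100 (complete control).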

[4] = test system: Galium (catchweed bedstraw, Galium aparine); assay: Test A postemergence; details: postemergence
Method in brief: as §2

[5] = test system: blackgrass (Alopecurus myosuroides); assay: Test A postemergence; details: postemergence
Method in brief: as §2

[6] = test system: ragweed (common ragweed, Ambrosia elatior); assay: Test A postemergence; details: postemergence
Method in brief: as §2

[7] = test system: barnyardgrass (Echinochloa crus-galli); assay: Test A postemergence; details: postemergence
Method in brief: as §2

[8] = test system: pigweed (Amaranthus retroflexus); assay: Test A postemergence; details: postemergence
Method in brief: as §2

Kochia (Kochia scoparia) [9] = assay: Test A postemergence; details: postemergence
Method in brief: as §2

[10] = test system: ryegrass, Italian (Italian ryegrass, Lolium multiflorum); assay: Test A postemergence; details: postemergence
Method in brief: as §2

[11] = test system: wheat (Triticum aestivum); assay: Test A postemergence; details: postemergence
Method in brief: as §2

[12] = test system: giant foxtail (Setaria faberii); assay: Test A postemergence; details: postemergence
Method in brief: as §2

[13] = test system: ragweed (common ragweed, Ambrosia elatior); assay: Test A preemergence
Method in brief: as §2

[14] = test system: barnyardgrass (Echinochloa crus-galli); assay: Test A preemergence
Method in brief: as §2

[15] = test system: pigweed (Amaranthus retroflexus); assay: Test A preemergence
Kochia (Kochia scoparia) [16] = assay: Test A preemergence
Method in brief: as §2

[17] = test system: ryegrass, Italian (Italian ryegrass, Lolium multiflorum); assay: Test A preemergence
Method in brief: as §2

[18] = test system: giant foxtail (Setaria faberii); assay: Test A preemergence
Method in brief: as §2

[19] = 125 g ai/ha, visual injury rating on 0 to 100 scale (0 no effect, 100 complete control), approx. 10 d
[20] = 500 g ai/ha, 0 to 100 scale, 0 no effect, 100 complete control
[21] = 125 g ai/ha, preemergence, 0 to 100 scale (0 no effect, 100 complete control)
[22] = Preemergence, 500 g ai/ha, visual injury approx. 10 d

## Cc1ccc(C2CNC(=O)C2C(=O)Nc2ccc(F)c(C)c2F)cc1F (stereo not drawn) [Compound 462]
[1]
  Plant response rating, Ducksalad: 85
Rice (Oryra sativa)
  Plant response rating, Rice: 0
[2]
  Plant response rating, Sedge, Umbrella: 0
[3]
  Plant response rating, Barnyardgrass: 40
Corn (Zea mays); [19]
  Corn plant response rating: 0
Corn (Zea mays); [20]
  Plant response rating, Corn: 0
[4]; [19]
  Galium plant response rating: 0
[4]; [20]
  Plant response rating, Galium: 10
[5]; [19]
  Blackgrass plant response rating: 20
[5]; [20]
  Plant response rating, Blackgrass: 40
[6]; [19]
  Ragweed plant response rating: 0
[6]; [20]
  Plant response rating, Ragweed: 0
[7]; [19]
  Barnyardgrass plant response rating: 70
[7]; [20]
  Plant response rating, Barnyardgrass: 80
[8]; [19]
  Pigweed plant response rating: 0
[8]; [20]
  Plant response rating, Pigweed: 0
Kochia (Kochia scoparia) [9]; [19]
  Kochia plant response rating: 0
Kochia (Kochia scoparia) [9]; [20]
  Plant response rating, Kochia: 0
[10]; [19]
  Ryegrass, Italian plant response rating: 0
[10]; [20]
  Plant response rating, Ryegrass, Italian: 0
[11]; [19]
  Wheat plant response rating: 0
[11]; [20]
  Plant response rating, Wheat: 0
[12]; [19]
  Foxtail, Giant plant response rating: 60
[12]; [20]
  Plant response rating, Foxtail, Giant: 70
[13]; [21]
  Plant response rating, Ragweed: 10
[13]; [22]
  Ragweed plant response rating (0 to 100 scale, 0 is no effect, 100 is complete control): 50
[14]; [21]
  Plant response rating, Barnyardgrass: 80
[14]; [22]
  Barnyardgrass plant response rating (0 to 100 scale, 0 is no effect, 100 is complete control): 90
[15]; [21]
  Plant response rating, Pigweed: 0
[15]; [22]
  Pigweed plant response rating (0 to 100 scale, 0 is no effect, 100 is complete control): 0
Kochia (Kochia scoparia) [16]; [21]
  Plant response rating, Kochia: 30
Kochia (Kochia scoparia) [16]; [22]
  Kochia plant response rating (0 to 100 scale, 0 is no effect, 100 is complete control): 70
[17]; [21]
  Plant response rating, Ryegrass, Italian: 0
[17]; [22]
  Ryegrass, Italian plant response rating (0 to 100 scale, 0 is no effect, 100 is complete control): 0
[18]; [21]
  Plant response rating, Foxtail, Giant: 80
[18]; [22]
  Foxtail, Giant plant response rating (0 to 100 scale, 0 is no effect, 100 is complete control): 90
